Target: T1, recombinant human 15-PGDH (Homo sapiens, UniProt P15428)
T1 construct: purchased R&D Systems
T1 sequence (P15428 1-266): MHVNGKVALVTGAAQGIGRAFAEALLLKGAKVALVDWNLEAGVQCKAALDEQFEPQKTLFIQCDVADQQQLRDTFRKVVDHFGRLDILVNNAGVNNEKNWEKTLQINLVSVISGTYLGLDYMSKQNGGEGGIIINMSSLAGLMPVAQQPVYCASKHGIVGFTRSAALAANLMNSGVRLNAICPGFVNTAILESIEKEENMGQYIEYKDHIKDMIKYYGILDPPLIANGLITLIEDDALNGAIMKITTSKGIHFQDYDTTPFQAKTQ
Assay: 15-PGDH enzyme inhibition test
Type: biochemical
Settings: 4 nM recombinant human 15-PGDH, 30 μM PGE2, 1 mM NAD+, 60 minutes after starting the reaction; read-out: IC50 Value
Summary of the method: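 4 nM recombinant human enzyme pre-incubated with compound 12 min at room temperature in 50 mM Tris-HCl pH 8.0 with 0.01% Tween 20 and 0.01% bovine gamma globulin. Reaction started with 30 μM PGE2 and 1 mM NAD+, read after 60 min by fluorescence (ex 340/em 440 nm). IC50 from concentration-response curve.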

| SMILES | IC50 |
| --- | --- |
| O=C(O)CCc1ccc(N2CCOc3cc(C(=O)N4CCCCC4)ccc32)cc1 [Example 2-33] | < 10 nM |
| O=C(O)c1ccc(N2CCCc3cc(C(=O)N4CCCCC4)cnc32)cc1 [Example 2-34] | < 10 nM |
| O=C(O)c1ccc(N2CCOc3cc(C(=O)N4CCC(F)(F)CC4)ccc32)cc1 [Example 2-35] | < 10 nM |
| O=C(O)c1ccccc1N1CCOc2cc(C(=O)N3CCCCC3)cnc21 [Example 2-36] | > 100 nM |
| CC(C)(C(=O)O)c1ccc(N2CCOc3cc(C(=O)N4CCCCC4)cnc32)cc1 [Example 2-37] | > 100 nM |
| O=C(O)c1ccc(N2CCOc3cc(C(=O)N4CCCCC4)cnc32)cn1 [Example 2-38] | < 10 nM |
| O=C(c1ccc2c(c1)OCCN2c1ccc(-c2nnn[nH]2)cc1)N1CCC(F)(F)CC1 [Example 3-1, (4-(4-(1H-Tetrazol-5-yl)phenyl)-3,4-dihydro-2H-benzo[b][1,4]oxazin-7-yl)(4,4-difluoropiperidin-1-yl)methanone] | < 10 nM |
| Cc1c(C(=O)N2CCCCC2)ccc2c1OCCN2c1ccc(C(=O)O)cc1 [Example 4-1, 4-(8-Methyl-7-(piperidine-1-carbonyl)-2,3-dihydro-4H-benzo[b][1,4]oxazin-4-yl)benzoic Acid] | < 10 nM |
| O=C(O)c1ccc(N2CCOc3cc(C(=O)N4CCCCC4)cnc32)cc1 [Example 4-2] | < 10 nM |
| O=C(O)c1ccc(N2CCOc3nc(C(=O)N4CCCCC4)ccc32)cc1 [Example 4-4] | < 10 nM |
| O=C(O)c1ccc(N2CCOc3cc(C(=O)N4CCC(F)(F)CC4)cnc32)cc1 [Example 4-5] | < 10 nM |
| O=C(O)c1ccc(N2CCOc3cc(C(=O)N4CCCC(F)(F)C4)cnc32)cc1 [Example 4-6] | < 10 nM |
| O=C(O)c1ccc(N2CCOc3cc(C(=O)N4CCC[C@@H](F)C4)cnc32)cc1 [Example 4-7] | < 10 nM |
| O=C(O)c1ccc(N2CCOc3cc(C(=O)N4CCC[C@H](F)C4)cnc32)cc1 [Example 4-8] | < 10 nM |
| O=C(O)c1ccc(N2CCOc3cc(C(=O)N4CC=CCC4)cnc32)cc1 [Example 4-9] | < 10 nM |
| O=C(O)c1ccc(N2CCOc3cc(C(=O)N4CCOCC4)cnc32)cc1 [Example 4-10] | 10 to 100 nM |
| CN1CCN(C(=O)c2cnc3c(c2)OCCN3c2ccc(C(=O)O)cc2)CC1 [Example 4-11] | 10 to 100 nM |
| O=C(O)c1ccc(N2CCOc3cc(C(=O)N4CCCCC4)sc32)cc1 [Example 4-12] | < 10 nM |
| O=C(O)C1CCC(N2CCOc3cc(C(=O)N4CCCCC4)ccc32)CC1 (centres unmarked) [Example 4-13] | 10 to 100 nM |
| O=C(O)C1CCC(N2CCOc3cc(C(=O)N4CCCCC4)ccc32)CC1 (centres unmarked) [Example 4-14] | < 10 nM |
| COc1cc(N2CCOc3cc(C(=O)N4CCCCC4)cnc32)ccc1C(=O)O [Example 4-15] | 10 to 100 nM |
| Cc1cc(N2CCOc3cc(C(=O)N4CCCCC4)cnc32)ccc1C(=O)O [Example 4-16] | < 10 nM |
| O=C(O)c1ccc(N2CCOc3cc(C(=O)N4CCCCC4)cnc32)cc1Cl [Example 4-17] | < 10 nM |
| Cc1cc(C(=O)O)ccc1N1CCOc2cc(C(=O)N3CCCCC3)cnc21 [Example 4-18] | 10 to 100 nM |
| O=C(O)c1cccc(N2CCOc3cc(C(=O)N4CCCCC4)cnc32)c1 [Example 4-19] | 10 to 100 nM |

| SMILES | IC50 |
| --- | --- |
| O=C(O)c1cccc(N2CCCc3cc(C(=O)N4CCCCC4)cnc32)c1 [Example 4-20] | 10 to 100 nM |
| CN1CCN(c2ccc(C(=O)O)cc2)c2ncc(C(=O)N3CCCCC3)cc21 [Example 4-21] | < 10 nM |
| COc1cc(N2CCOc3cc(C(=O)N4CC=CCC4)ccc32)ccc1C(N)=O [Example 5-1, 2-Methoxy-4-(7-(1,2,3,6-tetrahydropyridine-1-carbonyl)-2,3-dihydro-4H-benzo[b][1,4]oxazin-4-yl)benzamide] | < 10 nM |
| COc1cc(N2CCOc3cc(C(=O)N4CCC(F)(F)CC4)ccc32)ccc1C(N)=O [Example 5-2] | < 10 nM |
| CNC(=O)c1ccc(N2CCOc3cc(C(=O)N4CC=CCC4)ccc32)cc1OC [Example 5-3] | < 10 nM |
| CNC(=O)c1ccc(N2CCOc3cc(C(=O)N4CCC(F)(F)CC4)ccc32)cc1OC [Example 6-1, 4-(7-(4,4-Difluoropiperidine-1-carbonyl)-2,3-dihydro-4H-benzo[b][1,4]oxazin-4-yl)-2-methoxy-N-methylbenzamide] | < 10 nM |
| NC(=O)c1ccc(N2CCOc3cc(C(=O)N4CCCCC4)ccc32)nc1 [Example 6-2] | < 10 nM |
| NC(=O)c1ccc(N2CCOc3cc(C(=O)N4CCCCC4)ccc32)cn1 [Example 6-3] | < 10 nM |
| NC(=O)c1ccc(N2CCOc3cc(C(=O)N4CCCCC4)cnc32)cc1F [Example 6-4] | < 10 nM |
| CNC(=O)c1ccc(N2CCOc3cc(C(=O)N4CCCCC4)cnc32)cc1F [Example 6-5] | < 10 nM |
| NC(=O)Cn1nc2cc(N3CCOc4cc(C(=O)N5CCCCC5)cnc43)ccn2c1=O [Example 6-6] | < 10 nM |
| CNC(=O)Cn1nc2cc(N3CCOc4cc(C(=O)N5CCCCC5)cnc43)ccn2c1=O [Example 6-7] | < 10 nM |
| CN(C)C(=O)Cn1nc2cc(N3CCOc4cc(C(=O)N5CCCCC5)cnc43)ccn2c1=O [Example 6-8] | < 10 nM |
| CNC(=O)c1cn(C)c2cc(N3CCOc4cc(C(=O)N5CCCCC5)cnc43)ccc12 [Example 6-10] | > 100 nM |
| CNC(=O)c1cc2ccc(N3CCOc4cc(C(=O)N5CCCCC5)cnc43)cc2n1C [Example 6-11] | 10 to 100 nM |
| CNC(=O)c1ccc(N2CCOc3cc(C(=O)N4CCCCC4)cnc32)cc1C [Example 6-12] | > 100 nM |
| CNC(=O)c1ccc(N2CCOc3cc(C(=O)N4CCCCC4)cnc32)c(C)c1 [Example 6-13] | > 100 nM |
| NC(=O)c1ccc(N2CCCc3cc(C(=O)N4CCCCC4)cnc32)cc1 [Example 6-14] | < 10 nM |
| CN(C)C(=O)c1ccc(N2CCCc3cc(C(=O)N4CCCCC4)cnc32)cc1 [Example 6-15] | 10 to 100 nM |
| CNC(=O)C1CCC(N2CCOc3cc(C(=O)N4CCCCC4)ccc32)CC1 (centres unmarked) [Example 6-16] | 10 to 100 nM |
| NC(=O)c1ccc(N2CCOc3cc(C(=O)N4CCCCC4)cnc32)cc1 [Example 6-17] | < 10 nM |
| CNC(=O)c1ccc(N2CCOc3cc(C(=O)N4CCCCC4)cnc32)cc1 [Example 6-18] | < 10 nM |
| CN(C)C(=O)c1ccc(N2CCOc3cc(C(=O)N4CCCCC4)cnc32)cc1 [Example 6-19] | < 10 nM |
| CC(C)(C(N)=O)c1ccc(N2CCOc3cc(C(=O)N4CCCCC4)cnc32)cc1 [Example 6-20] | > 100 nM |
| NC(=O)c1ccc(N2CCOc3cc(C(=O)N4CCCCC4)cnc32)cn1 [Example 6-21] | < 10 nM |

| SMILES | IC50 |
| --- | --- |
| CNC(=O)c1ccc(N2CCOc3cc(C(=O)N4CCCCC4)cnc32)cn1 [Example 6-22] | < 10 nM |
| Cn1nc2cc(N3CCOc4cc([S+]([O-])C5CCCCC5)cnc43)ccn2c1=O (centres unmarked) [Example 7-5] | < 10 nM |
| Cn1nc2cc(N3CCOc4cc(S(=O)(=O)C5CCCCC5)cnc43)ccn2c1=O [Example 7-6] | > 100 nM |
| Cn1nc2cc(N3CCCc4cc([S+]([O-])C5CCCCC5)cnc43)ccn2c1=O (centres unmarked) [Example 7-7] | < 10 nM |
| Cn1nc2cc(N3CCCc4cc(S(=O)(=O)C5CCCCC5)cnc43)ccn2c1=O [Example 7-8] | > 100 nM |
| CN1Cc2cc(N3CCOc4cc([S+]([O-])C5CCCCC5)cnc43)ccc2C1=O (centres unmarked) [Example 7-9] | < 10 nM |
| CN1Cc2cc(N3CCOc4cc(S(=O)(=O)C5CCCCC5)cnc43)ccc2C1=O [Example 7-10] | 10 to 100 nM |
| CC(C)(C)OC(=O)c1ccc(N2CCOc3cc(C(=O)N4CCC[C@@H](F)C4)cnc32)cc1 [Example 8-7] | 10 to 100 nM |
| CC(C)(C)OC(=O)c1ccc(N2CCOc3cc(C(=O)N4CCC[C@H](F)C4)cnc32)cc1 [Example 8-8] | > 100 nM |
| O=C(c1ccc2c(c1)OCCN2C1CCCCC1)N1CCCCC1 [Example 8-14] | 10 to 100 nM |
| CCn1nc2cc(N3CCOc4cc(C(=O)N5CCCCC5)cnc43)ccn2c1=O [Example 8-15] | < 10 nM |
| CCn1nc2cc(N3CCOc4cc(C(=O)N5CCC5)cnc43)ccn2c1=O [Example 8-16] | < 10 nM |
| CCn1nc2cc(N3CCOc4cc(C(=O)N5CCCCCCC5)cnc43)ccn2c1=O [Example 8-17] | < 10 nM |
| CCN1Cc2cc(N3CCOc4cc(C(=O)N5CCCCC5)cnc43)ccc2C1=O [Example 8-18] | < 10 nM |
| CCn1nc2cc(N3CCOc4cc(C(=O)N5CCCC5)cnc43)ccn2c1=O [Example 8-19] | < 10 nM |
| Cn1nc2cc(N3CCOc4cc(C(=O)N5CCCC5)cnc43)ccn2c1=O [Example 8-20] | < 10 nM |
| C[C@@H]1CCCCN1C(=O)c1cnc2c(c1)OCCN2c1ccn2c(=O)n(C)nc2c1 [Example 8-21] | < 10 nM |
| C[C@@H]1CCCN1C(=O)c1cnc2c(c1)OCCN2c1ccn2c(=O)n(C)nc2c1 [Example 8-22] | 10 to 100 nM |
| Cn1nc2cc(N3CCOc4cc(C(=O)N5CCC[C@@H](F)C5)cnc43)ccn2c1=O [Example 8-23] | < 10 nM |
| Cn1nc2cc(N3CCOc4cc(C(=O)N5CCCC(F)(F)C5)cnc43)ccn2c1=O [Example 8-24] | < 10 nM |
| Cn1nc2cc(N3CCOc4cc(C(=O)N5CCC(F)(F)C5)cnc43)ccn2c1=O [Example 8-25] | < 10 nM |
| Cn1nc2cc(N3CCOc4cc(C(=O)N5CCC(F)(F)CC5)cnc43)ccn2c1=O [Example 8-26] | < 10 nM |
| Cn1nc2cc(N3CCOc4cc(C(=O)N5CCC[C@H](F)C5)cnc43)ccn2c1=O [Example 8-27] | < 10 nM |
| C[C@H]1CCCCN1C(=O)c1cnc2c(c1)OCCN2c1ccn2c(=O)n(C)nc2c1 [Example 8-28] | < 10 nM |

— US12577217B2, “15-PGDH inhibitor” (KYORIN Pharmaceutical Co., Ltd., priority 2019, dated 2026)
